Data: patent US20250230193A1, “CYCLIC COMPOUND HAVING SELECTIVE KRAS INHIBITORY EFFECT ON HRAS AND NRAS” (CHUGAI SEIYAKU KABUSHIKI KAISHA, priority 2022, published 2025)
Where a SMILES comes first, the peptide text is derived from it. Bridges are numbered along the chain shown (N, C = ends). [ ]: non-standard residue; d: D form. The star is where a group is joined. hPhe(3-Cl-4-CF3) = N[C@@H](CCc1ccc(C(F)(F)F)c(Cl)c1)C(=O)O; NPrPhe(4-CF3) = CCCN[C@@H](Cc1ccc(C(F)(F)F)cc1)C(=O)O; NMeGly(cPent) = CN[C@H](C(=O)O)C1CCCC1; Hyp = O=C(O)[C@@H]1C[C@@H](O)CN1; NMeD = CN[C@@H](CC(=O)O)C(=O)O; NMeL = CN[C@@H](CC(C)C)C(=O)O; Morpholide = C1CN(*)CCO1; Ac5c = NC1(C(=O)O)CCCC1; NEtG = CCNCC(=O)O; Sar = CNCC(=O)O

Experiments:
[1] = molecular target: GDP-bound NRAS wild-type protein (Homo sapiens, UniProt P01111); assay: Binding to NRAS by surface plasmon resonance (SPR), Single Cycle Kinetics; conditions: for NRAS/KRAS (ratio of KD value with respect to NRAS to KD value with respect to KRAS) / NRAS/KRAS (ratio of KD value for NRAS to KD value for KRAS): GDP-bound NRAS wild-type vs GDP-bound KRAS wild-type
[2] = molecular target: GDP-bound HRAS wild-type protein (Homo sapiens, UniProt P01112); assay: Binding to HRAS by surface plasmon resonance (SPR), Single Cycle Kinetics; conditions: for HRAS/KRAS (ratio of KD value with respect to HRAS to KD value with respect to KRAS) / HRAS/KRAS (ratio of KD value for HRAS to KD value for KRAS): GDP-bound HRAS wild-type vs GDP-bound KRAS wild-type
Chain of GDP-bound HRAS wild-type protein (P01112 whole entry): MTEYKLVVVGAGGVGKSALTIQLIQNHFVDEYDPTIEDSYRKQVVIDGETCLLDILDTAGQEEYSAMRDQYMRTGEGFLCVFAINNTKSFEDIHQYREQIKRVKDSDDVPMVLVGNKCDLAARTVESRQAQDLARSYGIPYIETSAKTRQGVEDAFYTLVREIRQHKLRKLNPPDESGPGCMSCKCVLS

Chain of GDP-bound NRAS wild-type protein (P01111 whole entry): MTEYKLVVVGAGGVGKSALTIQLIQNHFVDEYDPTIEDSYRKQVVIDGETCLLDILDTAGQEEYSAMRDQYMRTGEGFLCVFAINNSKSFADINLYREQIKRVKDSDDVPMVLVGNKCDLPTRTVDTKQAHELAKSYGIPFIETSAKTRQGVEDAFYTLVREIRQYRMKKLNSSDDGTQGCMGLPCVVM

Structure (SMILES): CCO[C@@H]1C[C@H]2C(=O)NC3(CC(C)(C)C3)C(=O)N(C)[C@@H](C(CC)CC)C(=O)N(C)[C@H](C(=O)N(C)C)CC(=O)N(C)[C@@H](COC)C(=O)N[C@@H]([C@@H](C)CC)C(=O)N(C3CC3)CC(=O)N(C)[C@H]3C/C=C\CCN(C3=O)[C@@H](CC3CCC(F)(F)CC3)C(=O)N(C)CC(=O)N[C@@H](CCc3ccc(Cl)c(Cl)c3)C(=O)N2C1 [PP2569]
- NRAS/KRAS (ratio of KD value with respect to GDP-bound NRAS wild-type protein to KD value with respect to KRAS) ([1]; KD ratio NRAS/KRAS, class symbols): AA (a compound having 20 or more is denoted as AA)
- HRAS/KRAS (ratio of KD value with respect to GDP-bound HRAS wild-type protein to KD value with respect to KRAS) ([2]; KD ratio HRAS/KRAS, class symbols): A (a compound having 10 or more and less than 20 is denoted as A)

Structure (SMILES): CCO[C@@H]1C[C@H]2C(=O)NC3(CCCC3)C(=O)N(C)[C@@H](C3CCCC3)C(=O)N(C)[C@H](C(=O)N3CCOCC3)CC(=O)N(C)[C@@H](COC)C(=O)N[C@@H]([C@@H](C)CC)C(=O)N3CC[C@H]3C(=O)N(C)[C@H]3CCCCCN(C3=O)[C@@H](Cc3ccc(C(F)(F)F)cc3)C(=O)N(C)CC(=O)N[C@@H](CCc3cc(F)c(C(F)(F)F)c(F)c3)C(=O)N2C1 [PP0867]
- NRAS/KRAS (ratio of KD value with respect to NRAS to KD value with respect to KRAS) ([1]; KD ratio, SPR): B (a compound having 3 or more and less than 10 is denoted as B)
- HRAS/KRAS (ratio of KD value with respect to HRAS to KD value with respect to KRAS) ([2]; KD ratio, SPR): B (a compound having 3 or more and less than 10 is denoted as B)

Structure (SMILES): CCCOC[C@H]1C(=O)N[C@@H]([C@@H](C)CC)C(=O)N(C)CC(=O)N(C)[C@H]2C/C=C\CCN(C2=O)[C@@H](CC2CCC(F)(F)CC2)C(=O)N(C)CC(=O)N[C@@H](CCc2cc(F)c(C(F)(F)F)c(F)c2)C(=O)N2C[C@@H](C)C[C@H]2C(=O)NC2(CC(C)(C)C2)C(=O)N(C)[C@@H](C(CC)CC)C(=O)N(C)[C@H](C(=O)N(C)C)CC(=O)N1C [PP2490]
- NRAS/KRAS (ratio of KD value with respect to NRAS to KD value with respect to KRAS) ([1]; SPR): AA (a compound having 20 or more is denoted as AA)
- HRAS/KRAS (ratio of KD value with respect to HRAS to KD value with respect to KRAS) ([2]; SPR): A (a compound having 10 or more and less than 20 is denoted as A)

Structure (SMILES): CC[C@H](C)[C@@H]1NC(=O)[C@H](CC)N(C)C(=O)C[C@@H](C(=O)N(C)C)N(C)C(=O)[C@H](C2CCCC2)N(C)C(=O)C2(CC(C)(C)C2)NC(=O)[C@@H]2C[C@@H](C)CN2C(=O)[C@H](CCc2ccc(C(F)(F)F)c(OC)c2)NC(=O)CN(C)C(=O)[C@H](Cc2ccc(C)cc2)N2CC/C=C\C[C@@H](C2=O)N(C)C(=O)CN(C)C1=O [PP1838]
- NRAS/KRAS (ratio of KD value for NRAS to KD value for KRAS) ([1]; KD ratio, SPR): A (a compound having 10 or more and less than 20 is denoted as A)
- HRAS/KRAS (ratio of KD value for HRAS to KD value for KRAS) ([2]; KD ratio, SPR): A (a compound having 10 or more and less than 20 is denoted as A)

Structure (SMILES): CCCN1C(=O)CN(C)C(=O)CN(CC)C(=O)[C@H]([C@@H](C)CC)NC(=O)[C@H](CC(C)C)N(C)C(=O)C[C@@H](C(=O)N(C)C)N(C)C(=O)[C@H](C2CCCC2)N(C)C(=O)C2(CCCC2)NC(=O)[C@@H]2C[C@@H](OCC)CN2C(=O)[C@H](CCc2ccc(C(F)(F)F)c(Cl)c2)NC(=O)CN(C)C(=O)[C@@H]1Cc1ccc(C(F)(F)F)cc1 [PP0427] ([NMeL]I[NEtG][Sar][NPrPhe(4-CF3)][Sar][hPhe(3-Cl-4-CF3)][Hyp](Et)[Ac5c][NMeGly(cPent)][NMeD]-NMe2; lactam N-11)
- NRAS/KRAS (ratio of KD value with respect to GDP-bound NRAS wild-type protein to KD value with respect to KRAS) ([1]; KD ratio NRAS/KRAS, SPR): B (a compound having 3 or more and less than 10 is denoted as B)
- HRAS/KRAS (ratio of KD value with respect to GDP-bound HRAS wild-type protein to KD value with respect to KRAS) ([2]; KD ratio HRAS/KRAS, SPR): C (A compound having a KD ratio of 0.1 or more and less than 3 is denoted as C)

Structure (SMILES): CCCN1C(=O)CN(C)C(=O)CN(CC)C(=O)[C@H]([C@@H](C)CC)NC(=O)[C@H](CC(C)C)N(C)C(=O)C[C@@H](C(=O)N2CCOCC2)N(C)C(=O)[C@H](C2CCCC2)N(C)C(=O)C2(CCCC2)NC(=O)CN(C)C(=O)[C@H](CCc2ccc(C(F)(F)F)c(Cl)c2)NC(=O)CN(C)C(=O)[C@@H]1Cc1ccc(C(F)(F)F)cc1 [PP0300] ([NMeL]I[NEtG][Sar][NPrPhe(4-CF3)][Sar][hPhe(3-Cl-4-CF3)][Sar][Ac5c][NMeGly(cPent)][NMeD]-Morpholide; lactam N-11)
- NRAS/KRAS (ratio of KD for GDP-bound NRAS wild-type to KD for KRAS) ([1]; KD ratio NRAS/KRAS, SPR): B (a compound having 3 or more and less than 10 is denoted as B)
- HRAS/KRAS (ratio of KD for GDP-bound HRAS wild-type to KD for KRAS) ([2]; KD ratio HRAS/KRAS, SPR): C (A compound having a KD ratio of 0.1 or more and less than 3 is denoted as C)

Structure (SMILES): CCO[C@@H]1C[C@H]2C(=O)NC3(CC(C)(C)C3)C(=O)N(C)[C@@H](C3CCCC3)C(=O)N(C)[C@H](C(=O)N(C)C)CC(=O)N(C)[C@@H](CC(C)C)C(=O)N[C@@H]([C@@H](C)CC)C(=O)N(C)CC(=O)N(C)[C@H]3C/C=C\CCN(C3=O)[C@@H](Cc3ccc(C(F)(F)F)cc3)C(=O)N(C)CC(=O)N[C@@H](CCc3ccc(C(F)(F)F)c(Cl)c3)C(=O)N2C1 [PP1751]
- NRAS/KRAS (ratio of KD value for NRAS to KD value for KRAS) ([1]; KD ratio, SPR): A (a compound having 10 or more and less than 20 is denoted as A)
- HRAS/KRAS (ratio of KD value for HRAS to KD value for KRAS) ([2]; KD ratio, SPR): A (a compound having 10 or more and less than 20 is denoted as A)
